Drawing on ChEMBL document CHEMBL1149724, “Nakahalene and Cytotoxic principles of Formosan Rhamnus Species” (1992), this text covers EC50 for four compounds.

Test [1] in a line: Cytotoxicity against human PLC/PRF/5 cells. It is filed as functional. Particulars: read-out: ED50 (the source's name).
The next test relates to KB. Description: Cytotoxicity against human KB cells. In kind it is functional. Particulars: read-out: ED50 (the source's name).

Values after ≈ are worked out from the molar mass of the structure shown.

Turning to `Cc1cc(O)c2c(c1)C(=O)c1cc(O)cc(O)c1C2=O` [EMODIN], the EC50 in test [1] amounted to 5.91 µg/mL (≈ 21.9 µM); in the test on KB it was 3.46 µg/mL (≈ 12.8 µM).

With `Cc1cc(O)c2c(c1)C(=O)c1cc(O[C@@H]3OC[C@](O)(CO)[C@H]3O)cc(O)c1C2=O` [FRANGULIN B], the EC50 in test [1] is 0.8 µg/mL (≈ 1.99 µM); in the test on KB it was 2.49 µg/mL (≈ 6.19 µM).

On to `Cc1cc(O)c2c(c1)C(=O)c1cccc(O)c1C2=O` [CHRYSOPHANOL], for which the EC50 in test [1] was found to be 3.23 µg/mL (≈ 12.7 µM); in the test with KB it was 5.68 µg/mL (≈ 22.3 µM).

As to `COc1cc(O)c2c(c1)C(=O)c1cc(C)cc(O)c1C2=O` [PHYSCION], the figures for the EC50 (in test [1]; in the test on KB) were 1.44 µg/mL (≈ 5.07 µM) and 1.55 µg/mL (≈ 5.45 µM), respectively.
